Experiments:
[1] = test system: patient with chronic migraines, lower back pain and anger with spouse; assay: Example 9 case study; assay type: in vivo, human; settings: naltrexone 5 mg twice daily for 14 months
From the text: For 30 years they and their retired spouse were always together.

emotional pain = assay: Migraine open-label pilot study: emotional pain on 4-point scale (emotional pain-free, emotional pain intensity); assay type: in vivo, human
Protocol: Sixteen unique patients were enrolled in an open phase pilot study for the acute treatment of migraine attacks, insomnia, and emotional pain. Of the sixteen patients, eleven were evaluated for one migraine attack, one for two attacks, two for four attacks, one for six attacks, and one for fourteen attacks. A total of forty-one […] treatments were evaluated. Patients received a single dose of one of the following treatment options:
The majority of the patients remained in the clinic for observation for 2 hours after dosing. They completed headache diary assessments immediately before and after dosing at time points: 7, 15, and 30 minutes; and 1, 1.5, 2, 3, 6, 12, 24, and 48 hours. Headache pain was assessed on a 4-point scale (0=none; 1=mild; 2=moderate; 3=severe). The assessment of photophobia, phonophobia, nausea, and neck/shoulder pain was assessed as present or absent. The assessment of emotional pain was recorded on a 4-point scale (0=none, 1=mild, 2=moderate, 3=severe). The assessment of difficulty sleeping or falling asleep (insomnia) was assessed on a 4-point scale (0=none, 1=mild, 2=moderate, 3=severe) at baseline, for the night before treatment and for the following nights at 24, and 48 hours. Patients recorded side effects severity at each time point. Patients recorded the time of the first rescue medication dose and all additional headache medications used within 48 hours. Patients were required to stay awake to record their assessments in the first 2 hours, sleeping was permitted thereafter. While asleep, assessments were completed according to patients' best estimation. For data analysis, it was assumed that a migraine attack is a unique patient. Patients were asked to specify (yes or no answer) to whether they experienced emotional pain symptoms such as: hurt feelings, sadness, fear, or anger. Patients who replied positively to having emotional pain were asked to specify the cause into one of the following options: relationship, work/school, money/debt, health, or loss/grief.

With `O=C1CC[C@@]2(O)[C@H]3Cc4ccc(O)c5c4[C@@]2(CCN3CC2CC2)[C@H]1O5` [naltrexone] the “lower back pain diminished by” value [1] was 90%, the “migraine intensity and frequency lessened by” value [1] was 90% and the “emotional pain intensity decreased by” value (emotional pain; 24-hour change from baseline, naltrexone 2.25 mg (n=9)) was 55%. For the same compound, the Emotional pain-free (emotional pain; 7 min, NTX/APAP 2.25 mg/325 mg, NTX 2.25 mg) was 1 (33) n (%), the Emotional pain-free (emotional pain; 7 min, NTX/APAP 3.25 mg/325 mg, NTX 3.25 mg) was 1 n (%) and the Emotional pain-free (emotional pain; 7 min, NTX/APAP 5 mg/325 mg, NTX 5 mg) was 0 n (%). For the same compound, the Emotional pain-free (emotional pain; 7 min, all doses combined) was 2 (33) n (%), the Emotional pain-free (emotional pain; 15 min, NTX/APAP 2.25 mg/325 mg, NTX 2.25 mg) was 7 (77) n (%) and the Emotional pain-free (emotional pain; 15 min, NTX/APAP 3.25 mg/325 mg, NTX 3.25 mg) was 2 n (%). For the same compound, the Emotional pain-free (emotional pain; 15 min, NTX/APAP 5 mg/325 mg, NTX 5 mg) was 0 n (%), the Emotional pain-free (emotional pain; 15 min, NTX/APAP […]325 mg, NTX 1.5 mg) was 2 n (%) and the Emotional pain-free (emotional pain; 15 min, all doses combined) was 11 (69) n (%). For the same compound, the Emotional pain-free (emotional pain; 30 min, NTX/APAP 2.25 mg/325 mg, NTX 2.25 mg) was 8 (89) n (%), the Emotional pain-free (emotional pain; 30 min, NTX/APAP 3.25 mg/325 mg, NTX 3.25 mg) was 2 (66) n (%) and the Emotional pain-free (emotional pain; 30 min, NTX/APAP 5 mg/325 mg, NTX 5 mg) was 1 (100) n (%). For the same compound, the Emotional pain-free (emotional pain; 30 min, NTX/APAP […]325 mg, NTX 1.5 mg) was 2 (66) n (%), the Emotional pain-free (emotional pain; 30 min, all doses combined) was 13 (87) n (%) and the Emotional pain-free (emotional pain; 1 h, NTX/APAP 2.25 mg/325 mg, NTX 2.25 mg) was 9 (100) n (%). The Emotional pain-free (emotional pain; 1 h, NTX/APAP 3.25 mg/325 mg, NTX 3.25 mg) was 2 (66) n (%), the Emotional pain-free (emotional pain; 1 h, NTX/APAP 5 mg/325 mg, NTX 5 mg) was 1 n (%) and the Emotional pain-free (emotional pain; 1 h, NTX/APAP […]325 mg, NTX 1.5 mg) was 2 (66) n (%). The Emotional pain-free (emotional pain; 1 h, all doses combined) was 14 (88) n (%), the Emotional pain-free (emotional pain; 90 min, NTX/APAP 2.25 mg/325 mg, NTX 2.25 mg) was 9 (100) n (%) and the Emotional pain-free (emotional pain; 90 min, NTX/APAP 3.25 mg/325 mg, NTX 3.25 mg) was 3 (100) n (%). For the same compound, the Emotional pain-free (emotional pain; 90 min, NTX/APAP 5 mg/325 mg, NTX 5 mg) was 1 (100) n (%), the Emotional pain-free (emotional pain; 90 min, NTX/APAP […]325 mg, NTX 1.5 mg) was 3 (100) n (%) and the Emotional pain-free (emotional pain; 90 min, all doses combined) was 16 (100) n (%). For the same compound, the Emotional pain-free (emotional pain; 2 h, NTX/APAP 2.25 mg/325 mg, NTX 2.25 mg) was 9 (100) n (%), the Emotional pain-free (emotional pain; 2 h, NTX/APAP 3.25 mg/325 mg, NTX 3.25 mg) was 3 (100) n (%) and the Emotional pain-free (emotional pain; 2 h, NTX/APAP 5 mg/325 mg, NTX 5 mg) was 1 n (%). For the same compound, the Emotional pain-free (emotional pain; 2 h, NTX/APAP […]325 mg, NTX 1.5 mg) was 3 (100) n (%), the Emotional pain-free (emotional pain; 2 h, combined doses) was 16 (100) and the Emotional pain-free (emotional pain; 3 h, NTX/APAP 2.25 mg/325 mg, NTX 2.25 mg) was 9 (100) n (%). For the same compound, the Emotional pain-free (emotional pain; 3 h, NTX/APAP 3.25 mg/325 mg, NTX 3.25 mg) was 3 (100) n (%), the Emotional pain-free (emotional pain; 3 h, NTX/APAP 5 mg/325 mg, NTX 5 mg) was 1 (100) n (%) and the Emotional pain-free (emotional pain; 3 h, NTX/APAP […]325 mg, NTX 1.5 mg) was 3 (100) n (%). The Emotional pain-free (emotional pain; 3 h, combined doses) was 16 (100) n (%), the Emotional pain-free (emotional pain; 4 h, NTX/APAP 2.25 mg/325 mg, NTX 2.25 mg) was 9 (100) n (%) and the Emotional pain-free (emotional pain; 4 h, NTX/APAP 3.25 mg/325 mg, NTX 3.25 mg) was 3 (100) n (%). For the same compound, the Emotional pain-free (emotional pain; 4 h, NTX/APAP 5 mg/325 mg, NTX 5 mg) was 1 (100) n (%), the Emotional pain-free (emotional pain; 4 h, NTX/APAP […]325 mg, NTX 1.5 mg) was 3 (100) n (%) and the Emotional pain-free (emotional pain; 4 h, combined doses) was 15 (94) n (%). For the same compound, the Emotional pain-free (emotional pain; 6 h, NTX/APAP 2.25 mg/325 mg, NTX 2.25 mg) was 9 (100) n (%), the Emotional pain-free (emotional pain; 6 h, NTX/APAP 3.25 mg/325 mg, NTX 3.25 mg) was 3 (100) n (%) and the Emotional pain-free (emotional pain; 6 h, NTX/APAP 5 mg/325 mg, NTX 5 mg) was 1 (100) n (%). The Emotional pain-free (emotional pain; 6 h, NTX/APAP […]325 mg, NTX 1.5 mg) was 3 (100) n (%), the Emotional pain-free (emotional pain; 6 h, combined doses) was 15 (94) n (%) and the Emotional pain-free (emotional pain; 12 h, NTX/APAP 2.25 mg/325 mg, NTX 2.25 mg) was 9 (100) n (%). The Emotional pain-free (emotional pain; 12 h, NTX/APAP 3.25 mg/325 mg, NTX 3.25 mg) was 3 (100) n (%), the Emotional pain-free (emotional pain; 12 h, NTX/APAP 5 mg/325 mg, NTX 5 mg) was 1 (100) n (%) and the Emotional pain-free (emotional pain; 12 h, NTX/APAP […]325 mg, NTX 1.5 mg) was 3 (100) n (%). The Emotional pain-free (emotional pain; 12 h, combined doses) was 15 (94) n (%), the Emotional pain-free (emotional pain; 24 h, NTX/APAP 2.25 mg/325 mg, NTX 2.25 mg) was 9 (100) n (%) and the Emotional pain-free (emotional pain; 24 h, NTX/APAP 3.25 mg/325 mg, NTX 3.25 mg) was 3 (100) n (%). The Emotional pain-free (emotional pain; 24 h, NTX/APAP 5 mg/325 mg, NTX 5 mg) was 1 (100) n (%), the Emotional pain-free (emotional pain; 24 h, NTX/APAP […]325 mg, NTX 1.5 mg) was 3 (100) n (%) and the Emotional pain-free (emotional pain; 24 h, combined doses) was 15 (94). For the same compound, the “Emotional Pain-free at 24 hours after dosing” value (emotional pain; NTX/APAP 2.25 mg/325 mg, NTX 2.25 mg) was 9 (100) n (%), the “Emotional Pain-free at 24 hours after dosing” value (emotional pain; NTX/APAP 3.25 mg/325 mg, NTX 3.25 mg) was 3 n (%) and the “Emotional Pain-free at 24 hours after dosing” value (emotional pain; NTX/APAP 5 mg/325 mg, NTX 5 mg) was 1 n (%).

From US11058680B2, “Combinations of opioid/TLR4 antagonists and acetaminophen for use in the treatment of emotional pain and insomnia” (Allodynic Threapeutics, LLC, priority 2016, dated 2021)
